The nature of assay [1]: HCT116 cell viability decrease, GSK3B pretreatment – CellTiter-Glo, IC50, dose response (AID 1117339). It is filed as functional. The note with it: HCT-116. Background: Cellular ATP, detected with luciferase, serves as a proxy for viable cell number.
Assay [2] is described as follows: cytotoxicity toward HT-29 cells – cell-based, CellTiter-Glo luminescence, IC50, dose response (AID 1117330). It is filed as functional.
Assay [3] in a line: Reduced DLD-1 viability, concentration-response, CellTiter-Glo luminescence (AID 1117352). The format is functional.
Assay [4] in a line: cytotoxicity toward Colo320 cells – cell-based, CellTiter-Glo luminescence, IC50, dose response (AID 1117334). It is filed as functional. The note with it: COLO 320.
Assay [5] in a line: RKO cell viability reduction, dose response, CellTiter-Glo luminescence (AID 1117322). It is filed as functional.
A short description of assay [6]: cytotoxicity toward HCT116 cells – cell-based, CellTiter-Glo luminescence, IC50, dose response (AID 1117332). The format is functional. To be noted: HCT-116.
A short description of assay [7]: CellTiter-Glo luminescence survival assay, SW480 colon tumor line, concentration-response curve, half-maximal inhibitory concentration (AID 1117338). The format is functional.
Assay [8] can be described thus: SNU-C1 cell viability reduction, dose response, CellTiter-Glo luminescence (AID 1117323). It is filed as functional, cell-based.
The nature of assay [9]: HIV-1 Vif–A3G interaction blockers – biochemical, TR-FRET, GST-Vif 1-94, biotin-A3G peptide, dose response retest, primary screen (AID 1117319).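 Also: TR-FRET signal of purified GST-Vif binding a biotinylated A3G peptide; inhibitors lower the FRET signal by blocking Vif and A3G binding.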 It is filed as functional. For orientation: TR-FRET usually uses a lanthanide donor and a delayed reading to cut background.
Assay [10] in a line: NIH3T3 cell viability loss – ATP luminescence, mouse fibroblasts, counter-screen, dose response (AID 2010).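 Also: cells exposed to compound for about 90 hours before reading.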 It is filed as functional, cell-based. Background: A counterscreen serves to expose hits that act by an unwanted route or on another target.
Assay [11] in a line: Trypanosoma cruzi growth suppression in host cells – NIH3T3 host cells, beta-gal luminescence, confirmation (AID 2044).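 Also: intracellular parasites grown in NIH/3T3 mouse fibroblasts as host cells; luminescent beta-galactosidase reporter signal from transgenic T. cruzi replicating inside host cells; inhibitors lower the luminescence signal.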 It is filed as functional, cell-based.
The target in assay [12] is Sphingosine 1-phosphate receptor 2 (Homo sapiens, UniProt O95136). Description: Dose Response Cell Based Assay for Antagonists of the S1P2 Receptor. [Related pubchem assays: 856, 736 ]. The format is functional.
Chain of Sphingosine 1-phosphate receptor 2 (O95136 whole entry): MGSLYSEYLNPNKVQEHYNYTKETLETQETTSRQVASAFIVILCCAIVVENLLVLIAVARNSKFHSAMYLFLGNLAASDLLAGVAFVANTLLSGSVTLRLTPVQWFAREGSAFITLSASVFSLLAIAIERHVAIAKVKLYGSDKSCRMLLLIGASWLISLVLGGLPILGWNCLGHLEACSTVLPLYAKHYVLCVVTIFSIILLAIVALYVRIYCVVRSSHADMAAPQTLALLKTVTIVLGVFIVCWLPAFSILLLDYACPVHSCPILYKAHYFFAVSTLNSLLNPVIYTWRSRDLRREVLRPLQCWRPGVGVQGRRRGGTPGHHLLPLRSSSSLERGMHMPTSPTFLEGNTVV
The target in assay [13] is T1, Aryl hydrocarbon receptor (Homo sapiens, UniProt P35869).
T1 sequence (P35869 whole entry): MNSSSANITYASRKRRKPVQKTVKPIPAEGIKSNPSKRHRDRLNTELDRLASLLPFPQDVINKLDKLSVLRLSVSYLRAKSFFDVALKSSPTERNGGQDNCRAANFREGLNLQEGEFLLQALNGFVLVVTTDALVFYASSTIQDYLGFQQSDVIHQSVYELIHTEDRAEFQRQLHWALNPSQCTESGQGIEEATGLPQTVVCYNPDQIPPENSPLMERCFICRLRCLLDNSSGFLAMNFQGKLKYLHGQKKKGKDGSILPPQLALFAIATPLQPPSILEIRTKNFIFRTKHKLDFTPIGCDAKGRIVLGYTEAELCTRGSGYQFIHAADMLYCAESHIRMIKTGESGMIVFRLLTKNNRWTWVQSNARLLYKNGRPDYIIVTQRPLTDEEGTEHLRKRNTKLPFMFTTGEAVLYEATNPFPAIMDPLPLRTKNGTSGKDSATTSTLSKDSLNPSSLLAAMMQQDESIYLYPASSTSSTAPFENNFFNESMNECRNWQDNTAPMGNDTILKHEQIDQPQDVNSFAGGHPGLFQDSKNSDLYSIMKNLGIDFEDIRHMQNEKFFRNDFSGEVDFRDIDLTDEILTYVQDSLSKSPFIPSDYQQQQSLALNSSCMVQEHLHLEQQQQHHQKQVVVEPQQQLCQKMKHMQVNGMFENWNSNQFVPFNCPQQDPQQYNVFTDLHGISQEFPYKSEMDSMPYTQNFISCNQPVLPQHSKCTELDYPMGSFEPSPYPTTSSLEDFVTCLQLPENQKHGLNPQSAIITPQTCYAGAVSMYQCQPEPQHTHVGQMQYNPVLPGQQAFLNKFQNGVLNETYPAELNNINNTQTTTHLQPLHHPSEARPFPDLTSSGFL
Kind of assay: Luminescence-based cell-based high throughput dose response assay for activators of the Aryl Hydrocarbon Receptor (AHR). [Related pubchem assays: 2796 (Primary screen (AHR activators in singlicate)), 2845 (Confirmation screen (AHR activators in triplicate)), 434939 (Counterscreen (PXR activators in triplicate)), 2804 (Summary (AHR activators))]. The format is ADME.

Assay [14] can be described thus: viability inhibitors of stage V gametocytes – luminescence, dose response (AID 1117278).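 Also: gametocytes exposed to compound for 24 hours.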 It is filed as functional, cell-based.
Assay [15] in a line: viability loss in human Jurkat cells – cell-based, luminescence, cytotoxicity control for P. falciparum gametocyte viability project, dose response (AID 1117277).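 Also: potency reflects loss of cellular ATP meaning fewer viable cells.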 The format is functional.
Assay [16] deals with Mitogen-activated protein kinase 10 (Homo sapiens, UniProt P53779). Description: Dose response biochemical screening assay for inhibitors of c-Jun N-Terminal Kinase 3 (JNK3). [Related pubchem assays: 746 ].
Chain of Mitogen-activated protein kinase 10 (P53779 whole entry): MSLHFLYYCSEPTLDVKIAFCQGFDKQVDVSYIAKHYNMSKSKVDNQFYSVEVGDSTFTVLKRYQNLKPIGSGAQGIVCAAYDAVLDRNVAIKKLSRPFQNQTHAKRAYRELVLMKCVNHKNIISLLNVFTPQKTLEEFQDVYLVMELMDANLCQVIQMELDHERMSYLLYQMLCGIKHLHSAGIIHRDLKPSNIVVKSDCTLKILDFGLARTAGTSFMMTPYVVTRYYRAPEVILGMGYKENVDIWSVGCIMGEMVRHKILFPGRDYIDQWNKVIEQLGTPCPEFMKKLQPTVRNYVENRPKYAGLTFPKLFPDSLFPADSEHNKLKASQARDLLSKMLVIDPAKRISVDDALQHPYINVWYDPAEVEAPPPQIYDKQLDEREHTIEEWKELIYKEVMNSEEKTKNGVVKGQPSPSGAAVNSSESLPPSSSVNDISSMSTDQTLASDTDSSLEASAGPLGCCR
The nature of assay [17]: P. falciparum Dd2 growth inhibitors, dose response, SYBR Green, cherry-picked samples (AID 1159567). The format is functional, cell-based.
Assay [18] in a line: Dd2 malaria parasite growth inhibition potency – SYBR Green, dry powder samples, dose response (AID 1159566).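 Also: potency for growth inhibition with lower SYBR green DNA signal.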 It is filed as functional, cell-based.
A short description of assay [19]: growth inhibition of yeast DHODH-expressing 3D7 parasites – SYBR Green, dry powder samples, dose response (AID 1159570).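 Also: parasite growth measured after 72 hours of compound exposure.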 It is filed as functional, cell-based.
The nature of assay [20]: toxicity to human HepG2 hepatoma cells – cell-based, plate reader, dry powder samples, cytotoxicity control, dose response (AID 1159569).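 Also: inhibitor potency with signal falling toward the positive control level.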 The format is functional.
A short description of assay [21]: growth inhibition of PfATP4-mutant resistant parasites – NITD609-resistant line, SYBR Green, dry powder, dose response (AID 1159571).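 Also: parasites synchronized at ring stage by sorbitol before testing.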 It is filed as functional, cell-based.
Assay [22] in a line: toxicity to human hepatoma HepG2 cells – cell-based, cherry-picked samples, cytotoxicity control, dose response (AID 1159577). The format is functional.

Consider 9 compounds from ChEMBL document CHEMBL1201862, “PubChem BioAssay data set” (2004).

By IC50 is commonly meant the concentration that gives 50% inhibition. The EC50 is the concentration at which the effect is half-maximal. For orientation: AC50 means the concentration at which the activity in the assay is half-maximal.

Calls of active or inactive are those of the source.

For `CCC=CCC=CCC=CCCCCCCCC(=O)O`, the IC50 in assay [1], in assay [2], in [3], in [4], in assay [5] and in assay [6] was > 20 µM (inactive) throughout. Besides, the IC50 in assay [7] and in assay [8] was > 20 µM (inactive) each time.

Consider `CCC(CC)c1nc2cc(OC)c(OC)cc2c(=O)o1`, for which the concentration for half-maximal inhibition (IC50) in [9] was > 100 µM (active).

On to `Cn1c(-c2c(N)n(CCCc3ccccc3)c3nc4ccccc4nc23)nc2ccccc21`, for which the values for the EC50 in assay [10] and in assay [11] were > 30 µM (not active) and 1.17 µM (active), respectively. Moreover, the IC50 in assay [12] was 8 µM (active).

For `COc1ccccc1NC(=O)c1ccc(C(=O)Nc2ccccc2OC)nc1`, in assay [13], the EC50 was 0.0686 µM (active).

For the compound `O=C(Cc1ccc(-c2ccccc2)cc1)NC1CCCC1`, the IC50 in assay [14] was > 109 µM (inactive); in assay [15] it was > 83.2 µM (inactive).

For `Cc1cc(NC(=O)CSC2=Nc3ccccc3C3=NC(Cc4ccccc4)C(=O)N23)[nH]n1` (stereo not given), in assay [16], the IC50 was 11.3 µM (not active).

As to `OC[C@H]1[C@@H](c2ccc(-c3cccc(F)c3)cc2)[C@@H]2CN(CCC(F)(F)F)CCCCN12`, the AC50 was 1.84 µM (active) in assay [17]; 0.618 µM (active) in assay [18]; 1.12 µM (active) in assay [19]; 12.8 µM (active) in [20]; 0.832 µM (active) in assay [21]; 28.5 µM (active) in assay [22].

As to `COC(=O)c1c(C#N)c(N)nc2c1CCCC2`, the IC50 in assay [16] was 60.1 µM (not active).

Take `Cc1cc(C)cc(N2CC(C(=O)O)CC2=O)c1` (stereo not given): the figures for the IC50 in assay [14] and in assay [15] were > 109 µM (inactive) and > 83.4 µM (inactive), respectively.
